Source: US20120244567A1, “HUMAN EMBRYONIC STEM CELLS FOR HIGH THROUGHOUT DRUG SCREENING” (BUCK INSTITUTE FOR RESEARCH ON AGING, priority 2009, published 2012)
Where a name gives a salt, the structure may show the parent alone.

Test system: dopaminergic neurons
Method: RNAs isolated from NSCs and neurons with and without drug treatments were hybridized to Illumina HumanRef-8 BeadChip (Illumina, Inc., San Diego, Calif., performed by Microarray core facility at the Burnham Institute for Medical Research). The Illumina array data were normalized by the quantile method, and then transformed log 2 ratio values for a zero mean for expression values of each gene across all samples. The statistical and bioinformatics analyses were conducted by using R and the bioconductor package (www.bioconductor.org). The gene set enrichment analysis was conducted using the GSEA software (www.broad.mit.edu/gsea).
The comparative results are then measured by a non-parametric, running sum statistic termed the enrichment score. The enrichment score significance is assessed by 1,000 permutation tests to compute the enrichment p-value.

[1] = enriched in treated DA neurons, Nom P-Val 0.910714
[2] = enriched in treated DA neurons, Nom P-Val 1
[3] = enriched in untreated DA neurons, NOM p-val 0
[4] = enriched in untreated DA neurons, NOM p-val 0.111111
[5] = enriched in untreated DA neurons, NOM p-val 0.166667
[6] = enriched in untreated DA neurons, NOM p-val 0.444444
[7] = enriched in untreated DA neurons, NOM p-val 0.818182
[8] = enriched in untreated DA neurons, NOM p-val 0.90625
[9] = enriched in untreated DA neurons, NOM p-val 0.955556
[10] = enriched in untreated DA neurons, NOM p-val 1

For `CCCCc1oc2ccccc2c1C(=O)c1cc(I)c(OCCN(CC)CC)c(I)c1` [Amiodarone Hydrochloride], the “Nes: Transferase Activity Transferring Glycosyl Groups” value (enriched in treated DA neurons, Nom P-Val 0.864865) was 0.8297, the “Nes: Cation Binding” value (enriched in treated DA neurons, Nom P-Val 0.894737) was 0.7825 and the “Nes: Calmodulin Binding” value [1] was 0.6917. The “Nes: Protein N Terminus Binding” value [1] was 0.7167, the “Nes: Guanyl Nucleotide Binding” value (enriched in treated DA neurons, Nom P-Val 0.913044) was 0.72 and the “Nes: Hydrolase Activity Acting On Ester Bonds” value (enriched in treated DA neurons, Nom P-Val 0.924051) was 0.7747. The “Nes: Transcription Corepressor Activity” value (enriched in treated DA neurons, Nom P-Val 0.942857) was 0.6958, the “Nes: Atpase Activity Coupled To Transmembrane Movement Of Ions” value (enriched in treated DA neurons, Nom P-Val 0.944444) was 0.5935 and the “Nes: Structural Molecule Activity” value (enriched in treated DA neurons, Nom P-Val 0.963415) was 0.7324. The “Nes: Transferase Activity Transferring Alkyl Or Aryl Other Than Methyl Groups” value (enriched in treated DA neurons, Nom P-Val 0.968254) was 0.6284, the “Nes: Actin Filament Binding” value (enriched in treated DA neurons, Nom P-Val 0.983871) was 0.3138 and the “Nes: Mrna Binding” value (enriched in treated DA neurons, Nom P-Val 0.984375) was 0.4087. For the same molecule, the “Nes: Transcription Factor Binding” value (enriched in treated DA neurons, Nom P-Val 0.987013) was 0.742, the “Nes: Phosphoric Ester Hydrolase Activity” value (enriched in treated DA neurons, Nom P-Val 0.9875) was 0.6959 and the “Nes: Atpase Activity” value [2] was 0.6528. The “Nes: Rna Binding” value [2] was 0.4406, the “Nes: Translation Initiation Factor Activity” value [2] was 0.3311 and the “NES: Gtpase Binding” value [3] was −1.62. The “NES: Hydrolase Activity Hydrolyzing O Glycosyl Compounds” value [3] was −1.479, the “NES: Ras Gtpase Binding” value (enriched in untreated DA neurons, NOM p-val 0.02) was −1.585 and the “NES: Cation Channel Activity” value (enriched in untreated DA neurons, NOM p-val 0.027778) was −1.394. For the same molecule, the “NES: Small Gtpase Binding” value (enriched in untreated DA neurons, NOM p-val 0.047619) was −1.4967, the “NES: Gated Channel Activity” value (enriched in untreated DA neurons, NOM p-val 0.051282) was −1.491 and the “NES: Ion Channel Activity” value (enriched in untreated DA neurons, NOM p-val 0.060606) was −1.2. For the same molecule, the “NES: Hydrolase Activity Acting On Glycosyl Bonds” value (enriched in untreated DA neurons, NOM p-val 0.08) was −1.414, the “NES: Nucleobase Nucleoside Nucleotide Kinase Activity” value (enriched in untreated DA neurons, NOM p-val 0.081081) was −1.368 and the “NES: Voltage Gated Channel Activity” value (enriched in untreated DA neurons, NOM p-val 0.085714) was −1.284. The “NES: Kinase Binding” value (enriched in untreated DA neurons, NOM p-val 0.1) was −1.316, the “NES: Exopeptidase Activity” value (enriched in untreated DA neurons, NOM p-val 0.105263) was −1.3223 and the “NES: Metal Ion Transmembrane Transporter Activity” value [4] was −1.269. The “NES: Potassium Channel Activity” value [4] was −1.325, the “NES: Substrate Specific Channel Activity” value (enriched in untreated DA neurons, NOM p-val 0.129032) was −1.221 and the “NES: Chromatin Binding” value (enriched in untreated DA neurons, NOM p-val 0.142857) was −1.239. The “NES: Gtpase Activator Activity” value (enriched in untreated DA neurons, NOM p-val 0.157895) was −1.222, the “NES: Phosphoprotein Phosphatase Activity” value (enriched in untreated DA neurons, NOM p-val 0.162162) was −1.15 and the “NES: Electron Carrier Activity” value [5] was −1.204. The “NES: Voltage Gated Cation Channel Activity” value [5] was −1.174, the “NES: Transition Metal Ion Binding” value (enriched in untreated DA neurons, NOM p-val 0.171429) was −1.098 and the “NES: Protein C Terminus Binding” value (enriched in untreated DA neurons, NOM p-val 0.212121) was −1.195. The “NES: Helicase Activity” value (enriched in untreated DA neurons, NOM p-val 0.216216) was −1.187, the “NES: Protein Complex Binding” value (enriched in untreated DA neurons, NOM p-val 0.222222) was −1.133 and the “NES: Enzyme Binding” value (enriched in untreated DA neurons, NOM p-val 0.233333) was −1.04. For the same molecule, the “NES: Ras Gtpase Activator Activity” value (enriched in untreated DA neurons, NOM p-val 0.243902) was −1.144, the “NES: S Adenosylmethionine Dependent Methyltransferase Activity” value (enriched in untreated DA neurons, NOM p-val 0.25) was −1.2358 and the “NES: Ligand Gated Channel Activity” value (enriched in untreated DA neurons, NOM p-val 0.263158) was −1.236. The “NES: Cation Transmembrane Transporter Activity” value (enriched in untreated DA neurons, NOM p-val 0.291667) was −1.08, the “NES: Rho Gtpase Activator Activity” value (enriched in untreated DA neurons, NOM p-val 0.297297) was −1.16 and the “NES: Rna Dependent Atpase Activity” value (enriched in untreated DA neurons, NOM p-val 0.318182) was −1.11. The “NES: Atp Dependent Helicase Activity” value (enriched in untreated DA neurons, NOM p-val 0.324324) was −1.133, the “NES: Methyltransferase Activity” value (enriched in untreated DA neurons, NOM p-val 0.340909) was −1.089 and the “NES: Auxiliary Transport Protein Activity” value (enriched in untreated DA neurons, NOM p-val 0.347826) was −1.141. The “NES: Transcription Factor Activity” value (enriched in untreated DA neurons, NOM p-val 0.35) was −1.022, the “NES: Rna Helicase Activity” value (enriched in untreated DA neurons, NOM p-val 0.365854) was −1.053 and the “NES: Growth Factor Activity” value (enriched in untreated DA neurons, NOM p-val 0.367347) was −1.079. For the same molecule, the “NES: Small Gtpase Regulator Activity” value (enriched in untreated DA neurons, NOM p-val 0.387097) was −1.038, the “NES: Phosphotransferase Activity Phosphate Group As Acceptor” value (enriched in untreated DA neurons, NOM p-val 0.431818) was −1.058 and the “NES: Protein Tyrosine Phosphatase Activity” value (enriched in untreated DA neurons, NOM p-val 0.432432) was −1.019. For the same molecule, the “NES: Peptidase Activity” value [6] was −0.9811, the “NES: Tubulin Binding” value [6] was −0.9894 and the “NES: Cytokine Binding” value (enriched in untreated DA neurons, NOM p-val 0.459459) was −0.9644. The “NES: Gtpase Regulator Activity” value (enriched in untreated DA neurons, NOM p-val 0.461538) was −0.9685, the “NES: Actin Binding” value (enriched in untreated DA neurons, NOM p-val 0.464286) was −1.007 and the “NES: Transferase Activity Transferring One Carbon Groups” value (enriched in untreated DA neurons, NOM p-val 0.466667) was −0.9965. For the same molecule, the “NES: Receptor Binding” value (enriched in untreated DA neurons, NOM p-val 0.47619) was −0.9865, the “NES: Protein Serine Threonine Phosphatase Activity” value (enriched in untreated DA neurons, NOM p-val 0.48718) was −0.9907 and the “NES: Polysaccharide Binding” value (enriched in untreated DA neurons, NOM p-val 0.5) was −0.9231. For the same molecule, the “NES: Atp Dependent Rna Helicase Activity” value (enriched in untreated DA neurons, NOM p-val 0.52381) was −1.022, the “NES: Sh3 Sh2 Adaptor Activity” value (enriched in untreated DA neurons, NOM p-val 0.542857) was −0.8755 and the “NES: Pattern Binding” value (enriched in untreated DA neurons, NOM p-val 0.567568) was −0.9438. For the same molecule, the “NES: Glycosaminoglycan Binding” value (enriched in untreated DA neurons, NOM p-val 0.571429) was −0.9097, the “NES: Phosphoric Monoester Hydrolase Activity” value (enriched in untreated DA neurons, NOM p-val 0.612903) was −0.9735 and the “NES: Hydrolase Activity Acting On Carbon Nitrogen But Not Peptide Bonds” value (enriched in untreated DA neurons, NOM p-val 0.634146) was −0.8501. The “NES: Cofactor Binding” value (enriched in untreated DA neurons, NOM p-val 0.636364) was −0.8571, the “NES: Protein Tyrosine Kinase Activity” value (enriched in untreated DA neurons, NOM p-val 0.657143) was −0.8381 and the “NES: Oxidoreductase Activity Go 0016705” value (enriched in untreated DA neurons, NOM p-val 0.675676) was −0.8606. The “NES: Growth Factor Binding” value (enriched in untreated DA neurons, NOM p-val 0.705882) was −0.8342, the “NES: Signal Sequence Binding” value (enriched in untreated DA neurons, NOM p-val 0.707317) was −0.8186 and the “NES: Cysteine Type Peptidase Activity” value (enriched in untreated DA neurons, NOM p-val 0.714286) was −0.844. For the same molecule, the “NES: Dna Dependent Atpase Activity” value (enriched in untreated DA neurons, NOM p-val 0.783784) was −0.8332, the “NES: Cysteine Type Endopeptidase Activity” value [7] was −0.8093 and the “NES: Oxidoreductase Activity” value [7] was −0.9148. For the same molecule, the “NES: Organic Acid Transmembrane Transporter Activity” value (enriched in untreated DA neurons, NOM p-val 0.833333) was −0.7234, the “NES: Lipid Binding” value (enriched in untreated DA neurons, NOM p-val 0.852941) was −0.7964 and the “NES: Ribonuclease Activity” value (enriched in untreated DA neurons, NOM p-val 0.875) was −0.6173. For the same molecule, the “NES: Protein Kinase Regulator Activity” value (enriched in untreated DA neurons, NOM p-val 0.885714) was −0.7344, the “NES: Rna Splicing Factor Activity Transesterification Mechanism” value (enriched in untreated DA neurons, NOM p-val 0.891892) was −0.5675 and the “NES: Specific Rna Polymerase Ii Transcription Factor Activity” value (enriched in untreated DA neurons, NOM p-val 0.904762) was −0.6412. The “NES: Isomerase Activity” value [8] was −0.6048, the “NES: Transcription Activator Activity” value [8] was −0.8411 and the “NES: Kinase Regulator Activity” value (enriched in untreated DA neurons, NOM p-val 0.911765) was −0.6989. The “NES: Phospholipid Binding” value (enriched in untreated DA neurons, NOM p-val 0.914894) was −0.6869, the “NES: Atpase Activity Coupled” value (enriched in untreated DA neurons, NOM p-val 0.925926) was −0.7071 and the “NES: Carboxylic Acid Transmembrane Transporter Activity” value (enriched in untreated DA neurons, NOM p-val 0.947368) was −0.696. The “NES: Phosphoinositide Binding” value (enriched in untreated DA neurons, NOM p-val 0.953488) was −0.5604, the “NES: Amino Acid Transmembrane Transporter Activity” value [9] was −0.4938 and the “NES: Serine Hydrolase Activity” value [9] was −0.6304. For the same molecule, the “NES: Hormone Receptor Binding” value (enriched in untreated DA neurons, NOM p-val 0.969697) was −0.4774, the “NES: Protein Heterodimerization Activity” value (enriched in untreated DA neurons, NOM p-val 0.971429) was −0.7909 and the “NES: Oxidoreductase Activity Acting On Nadh Or Nadph” value (enriched in untreated DA neurons, NOM p-val 0.975) was −0.4995. The “NES: Serine Type Peptidase Activity” value (enriched in untreated DA neurons, NOM p-val 0.97561) was −0.6529, the “NES: Amine Transmembrane Transporter Activity” value [10] was −0.4108 and the “NES: Nucleotidyltransferase Activity” value [10] was −0.497. The “NES: Structural Constituent Of Ribosome” value [10] was −0.2676 and the “NES: Serine Type Endopeptidase Activity” value (enriched in untreated DA neurons, NOM p-val […]) was −0.6588.
